Usually IC50 stands for the concentration needed to halve the response being measured.

Results on two compounds are retold here after patent US9156791B2, “Pyrazole compounds acting against allergic, immune and inflammatory conditions” (Glaxo Group Limited, priority 2010, dated 2015).

Series [1] is described as follows: In vitro microsomal clearance, human. It counts as in vitro ADME.
Series [2] can be described thus: In vitro microsomal clearance, rat. It counts as in vitro ADME.
A short description of series [3]: In vitro microsomal clearance, dog. It counts as in vitro ADME. Particulars: Dog (Beagle).
The subject of the next series is ICRAC current. The experiment in a line: ICRAC assay: thapsigargin-induced calcium influx in Jurkat E6-1 cells (Fluo-4, FLIPR). It counts as cell-based. The following applies: Homo sapiens, thapsigargin 5 μM, calcium add-back, inhibition of maximal fluorescence signal. The protocol:
This ICRAC assay uses the SERCA inhibitor thapsigargin to produce calcium depletion and activate an ICRAC current. […] Changes in intracellular calcium levels are determined by the inclusion of the calcium sensitive fluorescent dye Fluo-4 and the use of the FLIPR detection system. Inhibitors of ICRAC would be expected to decrease the calcium influx upon calcium add-back, thus reducing fluorescent signal.
Jurkat E6-1 is an established immortalised T lymphocyte cell line previously shown to express a functional ICRAC current. Jurkat cells grow in suspension, are cultured in DMEM+10% FBS, maintained in T175 flasks at 37° C./5% CO2, and are subcultured twice a week with either 1:10-1:20 splits. 1 confluent T175 yields 100 ml of approximately 2×10^6 cells/ml.
Loading buffer contains; NaCl 145 mM, KCl 2.5 mM, HEPES 10 mM, Glucose 10 mM, MgCl2 1.2 mM, made up with water, then pH adjusted to 7.4 using NaOH 1 M. Finally Fluo-4AM & brilliant black are added to give a final assay concentration of 2 μM and 250 μM respectively. […]
The required seeding density for a 384 plate is 20,000 cells per well. […] Plates are then transferred to the FLIPR which initially measures baseline fluorescence, followed by any increase in fluorescence evoked by the online addition of a 6 mM (1.2 mM FAC) calcium solution. […]

Molecules are shown by their SMILES.

In the case of `[2H]C([2H])(c1c(F)cccc1C(F)(F)F)n1cc(NC(=O)c2c(F)cccc2F)cn1` [Example 3, 2,6-Difluoro-N-(1-(2-fluoro-6-(trifluoromethyl)-d2-benzyl)-1H-pyrazol-4-yl)benzamide], the CIint is listed as less than 0.5 mL/min g liver in series [1], 0.95 mL/min g liver in series [2] (Rat (CD)), 1.16 mL/min g liver in series [2] (Rat (Wistar Han)) and 0.80 mL/min g liver in series [3].

For `O=C(Nc1cnn(Cc2c(F)cccc2C(F)(F)F)c1)c1c(F)cccc1F` [Example 1, 2,6-Difluoro-N-(1-{[2-fluoro-6-(trifluoromethyl)phenyl]methyl}-1H-pyrazol-4-yl)benzamide], in the series on ICRAC current, the half-maximal inhibitory concentration (IC50) is 3.16 µM. Besides, the CIint in series [1] was 0.80 mL/min g liver; in series [2] (Rat (CD)) it was 1.67 mL/min g liver; in series [2] (Rat (Wistar Han)), 2.05 mL/min g liver; in series [3] it was 0.98 mL/min g liver.
